Assay [1] concerns A30/T30 duplex (DNA, duplex) AAAAAAAAAAAAAAAAAAAAAAAAAAAAAA/TTTTTTTTTTTTTTTTTTTTTTTTTTTTTT
Description: SGI staining fluorescence. The note with it: 100 mM NaCl; 10 mM PB pH 7; 100 nM DNA, 0.5x SGI.

Assay [2] deals with Adenosine aptamer (Aptade), 4 bp (DNA, aptamer) ACCTGGGGGAGTATTGCGGAGGAAGGT
Description: ThT fluorescence enhancement. The note with it: 100 mM NaCl, 10 mM MgCl2; 10 mM PB pH 7; 100 nM aptamer.

`CCCN(CCCN(C)C)c1cc(C=C2Sc3ccccc3N2C)c2ccccc2[n+]1-c1ccccc1`: the binding entry in assay [1] is on record as “yes”.

In the case of `Cc1ccc2c(c1)sc(-c1ccc(N(C)C)cc1)[n+]2C`, the binding entry in assay [2] is reported as “yes”.

These data come from article PMC9692703 (2022).
